Some test systems named below: UO-31 renal; UACC-62 melanoma; U251 CNS; NCI-H522 lung; MDA-MB-231 breast; SNB-75 CNS; A498 renal; RPMI-8226 leukemia; SK-MEL-28 melanoma; SW-620 colon.
Common to all, as to test: NCI anticancer screen, dose series, 48 h

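In this assay, cells in 96-well plates receive the compound at five concentrations for 48 hours. Endpoints are linearly interpolated between the surrounding concentrations. GI50 = concentration required for 50% inhibition of growth. TGI denotes the concentration required for complete inhibition of growth.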 Where only a bound is given, the exact number is not on record here.

Regarding `C=CCn1c2ccccc2c2c3c(c4c5ccccc5n(CC=C)c4c21)C(=O)N(O)C3=O`, the GI50 was 1750 nM with UO-31 renal; 1740 nM in the assay with UACC-62 melanoma; 2790 nM in the assay on U251 CNS; 1090 nM in the assay with NCI-H522 lung; 4120 nM in the assay on MDA-MB-231 breast; 3.55 µM with SNB-75 CNS. Also, the GI50 is 2.55 µM in the assay with A498 renal, 2510 nM with RPMI-8226 leukemia, 5.47 µM in the assay with SK-MEL-28 melanoma and 4420 nM with SW-620 colon. The TGI in the assay on UO-31 renal stood at 5 µM; with UACC-62 melanoma, 10.5 µM; with U251 CNS, 11.4 µM; in the assay on NCI-H522 lung it was 2.56 µM; with MDA-MB-231 breast, 21.4 µM; in the assay on SNB-75 CNS it was 24.2 µM. The TGI in the assay with A498 renal is 9.48 µM; in the assay on RPMI-8226 leukemia, 10.6 µM; with SK-MEL-28 melanoma it was above 100 µM; in the assay with SW-620 colon, 29.5 µM.

For the molecule `CN1CCC2(CC1)N=C(SCC(=O)Nc1cnc3ccccc3c1)C(c1ccc(Br)cc1)=N2`, the GI50 with UO-31 renal is 1370 nM; in the assay on UACC-62 melanoma, 1710 nM; in the assay on U251 CNS it was 1830 nM; in the assay with NCI-H522 lung it was 1910 nM; with MDA-MB-231 breast it was 1550 nM; in the assay with SNB-75 CNS, 2.04 µM. The GI50 in the assay with A498 renal was 3.96 µM; in the assay with RPMI-8226 leukemia it was 2120 nM; in the assay with SK-MEL-28 melanoma, 1.79 µM; with SW-620 colon, 1880 nM. The TGI in the assay with UO-31 renal was determined as 2.68 µM; in the assay on UACC-62 melanoma, 3.21 µM; in the assay on U251 CNS, 3.65 µM; in the assay with NCI-H522 lung, 3.82 µM; in the assay on MDA-MB-231 breast, 3.23 µM; in the assay on SNB-75 CNS, 9.65 µM. The TGI was 14.9 µM in the assay on A498 renal, 4.9 µM with RPMI-8226 leukemia, 3.3 µM in the assay on SK-MEL-28 melanoma and 3.65 µM in the assay on SW-620 colon.

For `O=C(/C=C/c1ccccc1)c1cccc2ccccc12`, the GI50 with UO-31 renal is 2680 nM; with UACC-62 melanoma, 3460 nM; in the assay on U251 CNS, 2140 nM; in the assay with NCI-H522 lung it was 2750 nM; with MDA-MB-231 breast it was 4160 nM; in the assay on SNB-75 CNS it was 2.19 µM. Besides, the GI50 in the assay on A498 renal is 2.3 µM; with RPMI-8226 leukemia, 1930 nM; with SK-MEL-28 melanoma it was 5.02 µM; with SW-620 colon, 2420 nM. The TGI in the assay on UO-31 renal came to 12.6 µM; in the assay on UACC-62 melanoma, 11.8 µM; in the assay on U251 CNS, 6.02 µM; in the assay with NCI-H522 lung it was 8.41 µM; with MDA-MB-231 breast, 18.3 µM; in the assay with SNB-75 CNS, 7.27 µM. Also, the TGI in the assay on A498 renal amounted to 6.75 µM; in the assay with RPMI-8226 leukemia, 5.86 µM; with SK-MEL-28 melanoma, 16.6 µM; with SW-620 colon, 6 µM.

With `C=C1c2nc3ccccc3n2C=C(c2cccc(Cl)c2)N1Cc1ccc(OC)cc1`, the GI50 with UO-31 renal was 1920 nM; in the assay with UACC-62 melanoma, 937 nM; in the assay on U251 CNS, 768 nM; with NCI-H522 lung, 221 nM; with MDA-MB-231 breast, 964 nM; in the assay with SNB-75 CNS, 0.452 µM. The GI50 in the assay on A498 renal was 9.33 µM; in the assay on RPMI-8226 leukemia, 361 nM; with SK-MEL-28 melanoma, 10.5 µM; in the assay with SW-620 colon, 441 nM. In addition, the TGI in the assay with UO-31 renal was 33.7 µM; in the assay with UACC-62 melanoma it was 19.1 µM; with U251 CNS, above 100 µM; in the assay on NCI-H522 lung it was 1.1 µM; in the assay with MDA-MB-231 breast, above 100 µM; in the assay with SNB-75 CNS it was above 100 µM. The TGI is 60.4 µM with A498 renal, 5.75 µM in the assay on RPMI-8226 leukemia, 54.4 µM in the assay with SK-MEL-28 melanoma and above 78.2 µM with SW-620 colon.

As for `O=C(O)CCC(c1ccccc1)(c1ccccc1)c1ccccc1`, the TGI with UO-31 renal, with UACC-62 melanoma, in the assay on U251 CNS, in the assay on NCI-H522 lung, with MDA-MB-231 breast and in the assay on SNB-75 CNS was above 100 µM in each case. In addition, the TGI with A498 renal is above 100 µM; in the assay with RPMI-8226 leukemia, above 94.3 µM; with SK-MEL-28 melanoma, above 100 µM; with SW-620 colon, above 100 µM. Besides, the GI50 was 55300 nM with NCI-H522 lung and above 100 µM with SNB-75 CNS.

In the case of `Cn1c(CCCC(=O)O)nc2cc(N(CCCl)CCCl)ccc21`, the GI50 with UO-31 renal was above 100000 nM; with UACC-62 melanoma it was 52500 nM; in the assay on U251 CNS it was 72700 nM; in the assay on NCI-H522 lung, above 93000 nM; in the assay with MDA-MB-231 breast, above 69600 nM; in the assay on SNB-75 CNS it was above 83.5 µM. Moreover, the GI50 with A498 renal is above 32.6 µM; with RPMI-8226 leukemia, above 85300 nM; with SK-MEL-28 melanoma, above 100 µM; in the assay on SW-620 colon, 78400 nM. For the same molecule, the TGI with UO-31 renal, in the assay on UACC-62 melanoma, in the assay with U251 CNS, in the assay with NCI-H522 lung, in the assay with MDA-MB-231 breast and with SNB-75 CNS was above 100 µM throughout. Also, the TGI in the assay on A498 renal is above 75 µM; in the assay with RPMI-8226 leukemia, above 100 µM; in the assay with SK-MEL-28 melanoma it was above 100 µM; in the assay with SW-620 colon it was above 100 µM.

With `O/N=C(\CC(O)(C(F)(F)F)C(F)(F)F)c1cccs1`, the TGI with UO-31 renal, in the assay with UACC-62 melanoma, in the assay with U251 CNS, with NCI-H522 lung, in the assay with MDA-MB-231 breast and with SNB-75 CNS was above 10 µM throughout. Moreover, the TGI with A498 renal, in the assay with RPMI-8226 leukemia, with SK-MEL-28 melanoma and in the assay with SW-620 colon was above 10 µM each time.

As to `C/C(=N\NC(=O)c1ccncc1)c1sc(-n2nc(-c3ccccc3)cc2-c2ccccc2)nc1C`, the TGI with UO-31 renal is above 31.6 µM; in the assay on UACC-62 melanoma it was above 31.6 µM; in the assay on U251 CNS, above 31.6 µM; in the assay on NCI-H522 lung, above 80.5 µM; in the assay with MDA-MB-231 breast, above 100 µM; in the assay on SNB-75 CNS, above 100 µM. The TGI is above 100 µM with A498 renal, above 31.6 µM with RPMI-8226 leukemia, above 31.6 µM in the assay with SK-MEL-28 melanoma and above 31.6 µM in the assay on SW-620 colon.

For `CC1=CC(=O)N(c2cccc3c(N4C(=O)C=C(C)C4=O)cccc23)C1=O`, the GI50 in the assay on UO-31 renal was 1780 nM; in the assay on UACC-62 melanoma, 7680 nM; in the assay with U251 CNS, 5880 nM; in the assay with NCI-H522 lung, 693 nM; in the assay on MDA-MB-231 breast, 8440 nM; with SNB-75 CNS it was 28.1 µM. Also, the GI50 in the assay with A498 renal was 26.6 µM; with RPMI-8226 leukemia it was 3710 nM; in the assay with SK-MEL-28 melanoma, 7.81 µM; with SW-620 colon, 990 nM. In addition, the TGI was 4.44 µM in the assay on UO-31 renal; 20.5 µM in the assay on UACC-62 melanoma; 19.5 µM in the assay on U251 CNS; 1.79 µM in the assay on NCI-H522 lung; 22.5 µM in the assay on MDA-MB-231 breast; above 100 µM with SNB-75 CNS. The TGI in the assay on A498 renal turned out to be 56.5 µM; in the assay on RPMI-8226 leukemia, 19 µM; in the assay with SK-MEL-28 melanoma, 43.5 µM; with SW-620 colon it was 2.93 µM.

Take `CN1CCN(CCCNC(=O)c2c3c(n4ccccc24)C(=O)c2ncccc2C3=O)CC1`: the GI50 in the assay with UO-31 renal is 1810 nM; with UACC-62 melanoma, 764 nM; in the assay with U251 CNS, 1480 nM; in the assay on NCI-H522 lung, 1010 nM; with MDA-MB-231 breast, 1000 nM; in the assay with SNB-75 CNS, 3.92 µM. Besides, the GI50 in the assay with A498 renal is 10 µM; in the assay with RPMI-8226 leukemia, 3020 nM; in the assay on SK-MEL-28 melanoma, 4.57 µM; with SW-620 colon, 578 nM. The TGI with UO-31 renal was 30.7 µM; in the assay with UACC-62 melanoma it was 3 µM; in the assay on U251 CNS, 6.54 µM; in the assay with NCI-H522 lung it was 3.86 µM; in the assay with MDA-MB-231 breast, above 80 µM; with SNB-75 CNS it was 16.3 µM. Besides, the TGI with A498 renal is 25.1 µM; in the assay on RPMI-8226 leukemia it was above 24.4 µM; with SK-MEL-28 melanoma it was 19.1 µM; in the assay with SW-620 colon, 9.49 µM.

For the molecule `CN(C)c1ccc(/C=C(\C#N)c2cc3ccccc3[nH]2)cc1`, the GI50 in the assay on UO-31 renal is 2010 nM; in the assay on UACC-62 melanoma, 679 nM; with U251 CNS, 913 nM; in the assay on NCI-H522 lung, 542 nM; in the assay on MDA-MB-231 breast, 1630 nM; with SNB-75 CNS, 1.31 µM. Moreover, the GI50 in the assay with A498 renal was 0.391 µM; with RPMI-8226 leukemia, 630 nM; in the assay with SK-MEL-28 melanoma it was 2.63 µM; in the assay with SW-620 colon, 390 nM. The TGI with UO-31 renal was above 100 µM; in the assay with UACC-62 melanoma, above 100 µM; in the assay on U251 CNS, 18.6 µM; in the assay on NCI-H522 lung, above 100 µM; in the assay with MDA-MB-231 breast, above 100 µM; in the assay on SNB-75 CNS, 4.59 µM. The TGI was 6.61 µM in the assay on A498 renal, 4.91 µM in the assay on RPMI-8226 leukemia, above 100 µM in the assay with SK-MEL-28 melanoma and 61.9 µM in the assay with SW-620 colon.

Consider `CCN(CC)CCNC(=O)c1cccc2c1-c1ccccc1C2=O`, for which the GI50 is above 100000 nM in the assay on UO-31 renal; above 100000 nM in the assay on UACC-62 melanoma; above 100000 nM with U251 CNS; above 100000 nM in the assay with NCI-H522 lung; above 100000 nM in the assay on MDA-MB-231 breast; above 100 µM with SNB-75 CNS. The GI50 in the assay with A498 renal is above 100 µM; with RPMI-8226 leukemia it was 66300 nM; in the assay on SK-MEL-28 melanoma, above 100 µM; in the assay with SW-620 colon it was 90100 nM. For the same molecule, the TGI in the assay with UO-31 renal, in the assay with UACC-62 melanoma, in the assay with U251 CNS, in the assay with NCI-H522 lung, in the assay with MDA-MB-231 breast and with SNB-75 CNS was above 100 µM each time. Moreover, the TGI in the assay on A498 renal, with RPMI-8226 leukemia, in the assay on SK-MEL-28 melanoma and in the assay on SW-620 colon was above 100 µM each time.

(Values after PubChem BioAssay (NCI).)
